Experimental data reported in US11203596B2, “Analogs of 3-amino-4-(propan-2-ylidene)cyclopentane-1-carboxylic acid and uses thereof for treating diseases and disorders associated with ornithine aminotransferase activity” (Northwestern University, priority 2019, dated 2021).
Like-named read-outs stand apart in the source and are kept apart here.

Assays:
HCC = HCC infected/bearing mice; cited from earlier work
hOAT [1] = target: T1, hOAT (Homo sapiens, UniProt P04181); assay: coupled enzyme hOAT assay; type: biochemical
T1 construct: made in house
T1 sequence (P04181 36-439 limits assumed): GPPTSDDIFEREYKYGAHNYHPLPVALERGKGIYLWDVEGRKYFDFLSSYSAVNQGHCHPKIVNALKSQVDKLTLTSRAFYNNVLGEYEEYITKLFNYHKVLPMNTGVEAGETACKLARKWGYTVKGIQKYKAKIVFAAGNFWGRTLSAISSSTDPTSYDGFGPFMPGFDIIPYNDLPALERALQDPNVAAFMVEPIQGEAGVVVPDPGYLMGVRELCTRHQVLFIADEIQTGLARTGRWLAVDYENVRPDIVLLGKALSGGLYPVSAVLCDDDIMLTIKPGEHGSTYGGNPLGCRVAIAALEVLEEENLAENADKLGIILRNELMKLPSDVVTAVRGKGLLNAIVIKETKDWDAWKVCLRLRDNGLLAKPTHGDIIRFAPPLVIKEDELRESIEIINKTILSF
Procedure: With inhibitors in hand, we tested for activity in a previously developed coupled enzyme hOAT assay.^9,21
hOAT and PYCR1 were expressed, grown, and purified according to literature procedures.^22,23 GABA-AT was isolated from pig brains and purified according to literature procedure.^16 Coupled enzyme assays for GABA-AT and hOAT were carried out according to previous procedures.^15,21 All chemical were purchased from Sigma Aldrich, Acros Organics, or Matrix Scientific and used without further purification. Anhydrous solvents (THF, CH2Cl2, DMF) were purified before use by passing through a column composed of activated alumina and a supported copper redox catalyst. Yields refer to chromatographically and spectroscopically (^1H-NMR) homogeneous material. Analytical thin-layer chromatography (TLC) was performed using Merck Silica Gel 60 Å F-254 precoated plates (0.25 mm thickness), and components were visualized by ultraviolet light (254 nm) and/or ceric ammonium molybdate stain. Flash column chromatography was performed on a Teledyne Combiflash Rf Plus automated flash purification system with various Teledyne cartridges (4-80 g, 40-63 μm, 60 Å). Purifications were performed with hexanes and ethyl acetate unless otherwise noted. ^1H and ^13C NMR spectra were recorded on a Bruker Avance-III NMR spectrometer at 500 MHz and 126 MHz, respectively, in CDCl3 or D2O. Chemical shifts were reported in ppm, multiplicities are indicated by s=singlet, d=doublet, t=triplet, q=quartet, sep=septet, dd=doublet of doublet, dt=doublet of triplet, m=multiplet, br=broad resonance. Coupling constants were reported in Hz. High resolution mass spectral data were obtained on an Agilent 6210 LC-TOF spectrometer in the positive ion mode using electrospray ionization with an Agilent G1312A HPLC pump and an Agilent G1367B autoinjector at the Integrated Molecular Structure Education and Research Center (IMSERC), Northwestern University. Analytical HPLC was performed by using a reserved-phase Agilent Infinity 1260 HPLC with a Phenomenex Kintex C-18 column (50×2.1 mm, 2.6 μm), detecting with UV absorbance at 254 nm.

hOAT [2] = target: T1, hOAT; conditions: earlier work, cited from earlier work

Row | Ki (hOAT [1]; hOAT inactivation) [µM] | kinact (hOAT [1]; hOAT inactivation, read-out: kinact (converted)) [s⁻¹] | kinact/KI (hOAT [1]; hOAT inactivation, read-out: kinact/KI (converted)) [M⁻¹ s⁻¹] | activity against hOAT (in words) (hOAT [1]; hydrochloride) | activity against hOAT (in words) (hOAT [1]; listed as (1S,3S,Z)-3-amino-4-(1,1,1-trifluoro-3-methoxy-3-oxopropan-2-ylidene)cyclopentan, hydrochloride) | activity against hOAT (in words) (hOAT [1]) | Compound | HCC marker protein alpha-fetoprotein (HCC) | tumor size (HCC) | kinact (hOAT [1]) [s⁻¹] | kinact/KI (hOAT [1]) [M⁻¹ s⁻¹] | inhibition/inactivation of human OAT (in words) (hOAT [2]) | inhibition/inactivation of human OAT (in words) (hOAT [2]; listed as (1S,3 S)-3-amino-4-(perfluoropropan-2-ylidene)cyclopentane-1-carboxylic acid)
1 | 130 | 0.00167 | 12.2 | similarly potent inhibitor of hOAT | active |  | COC(=O)/C(=C1\C[C@H](C(=O)O)C[C@@H]1N)C(F)(F)F.Cl [Compound 10, (1S,3S,Z)-3-amino-4-(1,1,1-trifluoro-3-methoxy-3-oxopropan-2-ylidene)cyclopentane-1-carboxylic acid hydrochloride] |  |  |  |  |  | 
2 | ≥ 2000 |  |  |  |  | inactive | COC(=O)/C(=C1/C[C@H](C(=O)O)C[C@@H]1N)C(F)(F)F.Cl [Compound 11, (1S,3S,E)-3-amino-4-(1,1,1-trifluoro-3-methoxy-3-oxopropan-2-ylidene)cyclopentane-1-carboxylic acid hydrochloride] |  |  |  |  |  | 

Row | Compound | Ki (hOAT [1]; hOAT inactivation) [µM] | kinact (hOAT [1]; hOAT inactivation, read-out: kinact (converted)) [s⁻¹] | kinact/KI (hOAT [1]; hOAT inactivation, read-out: kinact/KI (converted)) [M⁻¹ s⁻¹] | activity against hOAT (in words) (hOAT [1]; hydrochloride) | activity against hOAT (in words) (hOAT [1]; listed as (1S,3S,Z)-3-amino-4-(1,1,1-trifluoro-3-methoxy-3-oxopropan-2-ylidene)cyclopentan, hydrochloride) | activity against hOAT (in words) (hOAT [1]) | HCC marker protein alpha-fetoprotein (HCC) | tumor size (HCC) | kinact (hOAT [1]) [s⁻¹] | kinact/KI (hOAT [1]) [M⁻¹ s⁻¹] | inhibition/inactivation of human OAT (in words) (hOAT [2]) | inhibition/inactivation of human OAT (in words) (hOAT [2]; listed as (1S,3 S)-3-amino-4-(perfluoropropan-2-ylidene)cyclopentane-1-carboxylic acid)
3 | N[C@H]1C[C@@H](C(=O)O)CC1=C(C(F)(F)F)C(F)(F)F [Compound 1, (1S,3S)-3-amino-4-(perfluoropropan-2-ylidene)cyclopentane-1-carboxylic acid] | 53 |  |  |  |  |  | decrease | decrease | 0.00133 | 25.7 | potent inhibitor | potent inactivator
